# Article PMC5999115, “Anti-tumor activity of phenoxybenzamine and its inhibition of histone deacetylases” (PLoS ONE, 2018)
# What was measured:
# Experiment in all cases: Oncotest CellTiter-Blue cell viability assay, 72 hours
# Assay type in all cases: cell-based, human
# LXFA NCI-H522 = test system: LXFA NCI-H522
# Description: (§1) Further studies with varying drug concentrations on selected human cell lines, in most cases those studied in the NCI60 screen, were conducted by Oncotest GmbH laboratories, Freiburg, Germany; Oncotest is a division of Charles River Laboratories. The dissolution procedure for PBZ and the cell culture […] was 72 hours; anti-tumor activity was determined with the CellTiter-Blue® Cell Viability Assay, Promega, Mannheim, Germany. The 50% Inhibitory (IC50) concentrations were determined. The results are the average of duplicate assays. Paclitaxel was included as a reference compound to confirm the integrity of the assays. See S1 Appendix for further details.
# (§2) “Cell lines were routinely passaged once or twice weekly and maintained in culture for up to 20 passages. Cells were grown at 37°C in a humidified atmosphere with 5% CO2 in RPMI 1640 medium (25 mM HEPES, with L-glutamine, #FG1385, Biochrom, Berlin, Germany) supplemented with 10% (v/v) fetal calf serum (Sigma, Taufkirchen, Germany) and 0.1 mg/mL gentamicin (Life Technologies, Karlsruhe, Germany).”
# MMXF RPMI 8226 = test system: MMXF RPMI 8226
# Description: as §1, §2
# CNXF U-251 = test system: CNXF U-251
# Description: as §1, §2
# PRXF PC-3 = test system: PRXF PC-3
# Description: as §1, §2
# [1] = LXFA NCI-H522, 1% FCS, study P495C
# [2] = LXFA NCI-H522, 10% FCS, study P495A
# [3] = LXFA NCI-H522, 10% FCS, study P495B
# [4] = MMX RPMI8226, 1% FCS, study P495C
# [5] = MMX RPMI8226, 10% FCS, study P495A
# [6] = MMX RPMI8226, 10% FCS, study P495B
# [7] = CNXF U-251, 1% FCS, study P495C
# [8] = CNXF U-251, 10% FCS, study P495A
smiles,measurement,setting,value
"CC(COc1ccccc1)N(CCCl)Cc1ccccc1 (stereo not shown) [PBZ, phenoxybenzamine]",Percent cell growth in Oncotest screen with 10% FCS (72 hr incubation),"LXFA NCI-H522; 10 μM phenoxybenzamine, NCI-H522",108%
same,IC50,"LXFA NCI-H522; Homo sapiens, LXFA NCI-H522 Non-small-cell lung, 1% FCS",51.5 µM
same,"Test/Control (%) at Drug Concentration [uM] 1,0E+00",LXFA NCI-H522; [1],99%
same,"Test/Control (%) at Drug Concentration [uM] 1,0E+01",LXFA NCI-H522; [1],99%
same,"Test/Control (%) at Drug Concentration [uM] 1,0E+02",LXFA NCI-H522; [1],6%
same,"Test/Control (%) at Drug Concentration [uM] 3,2E+00",LXFA NCI-H522; [1],106%
same,"Test/Control (%) at Drug Concentration [uM] 3,2E+01",LXFA NCI-H522; [1],89%
same,"Test/Control (%) at Drug Concentration [uM] 1,0E+00",LXFA NCI-H522; [2],99%
same,"Test/Control (%) at Drug Concentration [uM] 1,0E+01",LXFA NCI-H522; [2],108%
same,"Test/Control (%) at Drug Concentration [uM] 1,0E+02",LXFA NCI-H522; [2],14%
same,"Test/Control (%) at Drug Concentration [uM] 1,0E-01",LXFA NCI-H522; [2],96%
same,"Test/Control (%) at Drug Concentration [uM] 1,0E-02",LXFA NCI-H522; [2],81%
same,"Test/Control (%) at Drug Concentration [uM] 3,2E+00",LXFA NCI-H522; [2],107%
same,"Test/Control (%) at Drug Concentration [uM] 3,2E+01",LXFA NCI-H522; [2],110%
same,"Test/Control (%) at Drug Concentration [uM] 3,2E-01",LXFA NCI-H522; [2],98%
same,"Test/Control (%) at Drug Concentration [uM] 3,2E-02",LXFA NCI-H522; [2],82%
same,"Test/Control (%) at Drug Concentration [uM] 3,2E-03",LXFA NCI-H522; [2],76%
same,"Test/Control (%) at Drug Concentration [uM] 1,0E+00",LXFA NCI-H522; [3],100%
same,"Test/Control (%) at Drug Concentration [uM] 1,0E+01",LXFA NCI-H522; [3],93%
same,"Test/Control (%) at Drug Concentration [uM] 1,0E+02",LXFA NCI-H522; [3],29%
same,"Test/Control (%) at Drug Concentration [uM] 1,0E-01",LXFA NCI-H522; [3],100%
same,"Test/Control (%) at Drug Concentration [uM] 1,0E-02",LXFA NCI-H522; [3],100%
same,"Test/Control (%) at Drug Concentration [uM] 1,0E-03",LXFA NCI-H522; [3],100%
same,"Test/Control (%) at Drug Concentration [uM] 3,2E+00",LXFA NCI-H522; [3],100%
same,"Test/Control (%) at Drug Concentration [uM] 3,2E+01",LXFA NCI-H522; [3],97%
same,Percent cell growth in Oncotest screen with 10% FCS (72 hr incubation),"MMXF RPMI 8226; 10 μM phenoxybenzamine, RPMI 8226",98%
same,IC50,"MMXF RPMI 8226; Homo sapiens, MMXF RPMI 8226 Myeloma, 1% FCS",44.4 µM
same,"Test/Control (%) at Drug Concentration [uM] 1,0E+00",MMXF RPMI 8226; [4],102%
same,"Test/Control (%) at Drug Concentration [uM] 1,0E+01",MMXF RPMI 8226; [4],95%
same,"Test/Control (%) at Drug Concentration [uM] 1,0E+02",MMXF RPMI 8226; [4],5%
same,"Test/Control (%) at Drug Concentration [uM] 3,2E+00",MMXF RPMI 8226; [4],101%
same,"Test/Control (%) at Drug Concentration [uM] 3,2E+01",MMXF RPMI 8226; [4],77%
same,"Test/Control (%) at Drug Concentration [uM] 1,0E+00",MMXF RPMI 8226; [5],89%
same,"Test/Control (%) at Drug Concentration [uM] 1,0E+01",MMXF RPMI 8226; [5],98%
same,"Test/Control (%) at Drug Concentration [uM] 1,0E+02",MMXF RPMI 8226; [5],10%
same,"Test/Control (%) at Drug Concentration [uM] 1,0E-01",MMXF RPMI 8226; [5],83%
same,"Test/Control (%) at Drug Concentration [uM] 1,0E-02",MMXF RPMI 8226; [5],80%
same,"Test/Control (%) at Drug Concentration [uM] 3,2E+00",MMXF RPMI 8226; [5],87%
same,"Test/Control (%) at Drug Concentration [uM] 3,2E+01",MMXF RPMI 8226; [5],99%
same,"Test/Control (%) at Drug Concentration [uM] 3,2E-01",MMXF RPMI 8226; [5],84%
same,"Test/Control (%) at Drug Concentration [uM] 3,2E-02",MMXF RPMI 8226; [5],76%
same,"Test/Control (%) at Drug Concentration [uM] 3,2E-03",MMXF RPMI 8226; [5],86%
same,"Test/Control (%) at Drug Concentration [uM] 1,0E+00",MMXF RPMI 8226; [6],88%
same,"Test/Control (%) at Drug Concentration [uM] 1,0E+01",MMXF RPMI 8226; [6],94%
same,"Test/Control (%) at Drug Concentration [uM] 1,0E+02",MMXF RPMI 8226; [6],16%
same,"Test/Control (%) at Drug Concentration [uM] 1,0E-01",MMXF RPMI 8226; [6],100%
same,"Test/Control (%) at Drug Concentration [uM] 1,0E-02",MMXF RPMI 8226; [6],100%
same,"Test/Control (%) at Drug Concentration [uM] 1,0E-03",MMXF RPMI 8226; [6],100%
same,"Test/Control (%) at Drug Concentration [uM] 3,2E+00",MMXF RPMI 8226; [6],92%
same,"Test/Control (%) at Drug Concentration [uM] 3,2E+01",MMXF RPMI 8226; [6],95%
same,"Test/Control (%) at Drug Concentration [uM] 1,0E+00",CNXF U-251; [7],98%
same,"Test/Control (%) at Drug Concentration [uM] 1,0E+01",CNXF U-251; [7],102%
same,"Test/Control (%) at Drug Concentration [uM] 1,0E+02",CNXF U-251; [7],36%
same,"Test/Control (%) at Drug Concentration [uM] 3,2E+00",CNXF U-251; [7],102%
same,"Test/Control (%) at Drug Concentration [uM] 3,2E+01",CNXF U-251; [7],98%
same,"Test/Control (%) at Drug Concentration [uM] 1,0E+00",CNXF U-251; [8],92%
same,"Test/Control (%) at Drug Concentration [uM] 1,0E+01",CNXF U-251; [8],103%
same,"Test/Control (%) at Drug Concentration [uM] 1,0E+02",CNXF U-251; [8],98%
same,"Test/Control (%) at Drug Concentration [uM] 1,0E-01",CNXF U-251; [8],90%
same,"Test/Control (%) at Drug Concentration [uM] 1,0E-02",CNXF U-251; [8],90%
same,"Test/Control (%) at Drug Concentration [uM] 3,2E+00",CNXF U-251; [8],94%
same,"Test/Control (%) at Drug Concentration [uM] 3,2E+01",CNXF U-251; [8],118%
same,"Test/Control (%) at Drug Concentration [uM] 3,2E-01",CNXF U-251; [8],93%
same,"Test/Control (%) at Drug Concentration [uM] 3,2E-02",CNXF U-251; [8],93%
same,"Test/Control (%) at Drug Concentration [uM] 3,2E-03",CNXF U-251; [8],85%
same,IC50,"CNXF U-251; Homo sapiens, CNXF U-251 CNS, 1% FCS",83.1 µM
same,Percent cell growth in Oncotest screen with 10% FCS (72 hr incubation),"PRXF PC-3; 10 μM phenoxybenzamine, PC-3",86%
same,IC50,"PRXF PC-3; Homo sapiens, PRXF PC-3 Prostate, 1% FCS",29.8 µM
same,"Test/Control (%) at Drug Concentration [uM] 1,0E+00","PRXF PC-3; PRXF PC-3, 1% FCS, study P495C",102%
same,"Test/Control (%) at Drug Concentration [uM] 1,0E+01","PRXF PC-3; PRXF PC-3, 1% FCS, study P495C",100%
